# In US20120122727A1, “IN VITRO METHOD FOR PREDICTING WHETHER A COMPOUND IS GENOTOXIC IN VIVO” (priority 2009, published 2012):
# How the values were obtained:
# [1] = test system: primary mouse hepatocytes; assay: Class prediction true GTX vs false GTX by PAM from hepatocyte gene expression
# Protocol: PAM uses gene expression data to calculate the shrunken centroid for each class and identifies the specific genes that determine the centroid most. Based on the nearest shrunken centroid, PAM is also capable of predicting to which class an unknown sample belongs (27). Class prediction was performed after 24 h and 48 h of exposure.
# For this analysis, the gene list with differentially expressed probe sets was used. For each exposure period, 3 sets of genes (classifiers) were generated by PAM, using all ten treatments, based on the smallest estimated misclassification error rate (generated by 10-fold cross-validation) and a >80% predicted test probability. This was done by using 2 experiments as training set and the third experiment for validation. This was done for all 3 possible combinations, each time leaving out another experiment. For each time point, the classifiers that were in common between the three training sets, were set as the final classifier set for that time point
# For the purpose of validating the class discrimination models with the final classifier sets, gene expression data were generated for two additional true GTX compounds, phenacetin and DMBA, and for three False GTX compounds, cur, ethylacrylate and resorcinol and the vehicle control for exposure periods of 24 and 48 h.
# [2] = in vivo; cited from earlier work
smiles,measurement,setting,value
COc1cc(/C=C/C(=O)CC(=O)/C=C/c2ccc(O)c(OC)c2)ccc1O [cur],Prediction 24 h Exp 1,[1],FP-GTX
same,Prediction 24 h Exp 2,[1],FP-GTX
same,Prediction 24 h Exp 3,[1],FP-GTX
same,Prediction 48 h Exp 1,[1],FP-GTX
same,Prediction 48 h Exp 2,[1],FP-GTX
same,Prediction 48 h Exp 3,[1],FP-GTX
same,class prediction (true GTX / false GTX),[1],classified correctly
same,predicted test probability,[1],100%
same,Genotoxic class,[2],FP-GTX
